Laboratory results reported in patent US9610258B2, “Methods of stabilizing the extracellular matrix and compositions therefor” (priority 2011, dated 2017).
“And” between values parts separate entries of the source, which are not always exact repeats. Equal values may be shown once.

What was measured:
[1] = 12-month aging of topical cream, isothiocyanate concentration by HPLC; format: physicochemical; settings: Table 11 cream; for isothiocyanate concentration in cream, 4 months: aged 4 months; for isothiocyanate concentration in cream, 8 months: aged 8 months; for isothiocyanate concentration in cream, 12 months: aged 12 months; for isothiocyanate concentration in cream, Original: time 0
Description: To determine the effects of aging of the topical cream formulations on the potency of the included bioactives, a study was performed as described in Table 12. Shown is a 12-month aging of the orthomolecular transdermal formulation as described in Table 11. Bio-encapsulation of the isothiocyanates, such as cyclodextrin R-sulforaphane, is not commonly available, and can suffer instability depending on the cream base used. Since topical formulations are applied to the skin, consideration of noxious volatile sulfur emissions and dermal irritation, especially from broccoli, wasabi, and mustard extracts, limit their amount and source. Table 12 illustrates that stabilization of orthomolecular ingredients such as isothiocyanates can be accomplished in a topical formulation.

[2] = tested on: mice; settings: mouse, in vivo; cited from earlier work
[3] = tested on: oxazolone-induced ear edema in BALB/c mice; test: Oxazolone-induced murine ear edema, second formalized study; format: in vivo; settings: for reduction / inhibition of oxazolone-induced ear edema: as stated in running text per treatment group; for Change in Ear Weight, Mean: group mean, 8 mice, acetone vehicle 74.6; for Left Ear weight / Right Ear weight / ΔWt., change in mouse ear weight: individual mice, 24 h after oxazolone challenge; for % Inhibition of change in ear weight: vs acetone vehicle group
Description: The present example assesses the anti-inflammatory activity of a topically applied formulation in accordance with one aspect of the present invention in a prophylactic and therapeutic model of ear edema in BALB/c mice. […] Louis, Mo., USA) to 20 mL acetone (Acros Organics, Cat. 42324-0010, lot B4522107, Thermo Fisher Scientific, Princeton, N.J., USA). The mixture was gently heated until a bright yellow color. 52 BALB/c mice (Harlan Sprague-Dawley, Inc., Indianapolis, Ind., USA, male, 6-7 weeks old) were received, individually examined and housed in six cages of eight mice each and one cage containing four mice. No clinical signs of disease or distress were observed. The mice were placed in quarantine with daily inspections. […] The mixture was gently heated until a bright yellow color. […] This equated to 0.336 mg of cream per ear. 0.6 mg betamethasone-21-valerate (Sigma Chem., Cat. […] PZ0008, lot 020M47044) was suspended in […] dH2O (1 mg/mL) for Group 4. […] Twenty-four hours after oxazolone challenge, the mice were euthanized, and the ears were removed and weighed.

[4] = in topical formulations; cited from earlier work
[5] = tested on: breast cancer; settings: women living at least one year after breast cancer diagnosis; cited from earlier work
[6] = tested on: ear edema; settings: cited from earlier work

## C[S+]([O-])CCCCCCN=C=S (centres unmarked) [6 MITC, 6-(methylsulfinyl)hexyl isothiocyanate]
[1]
  isothiocyanate concentration in cream, 4 months: 0.341 Mg/gm
  isothiocyanate concentration in cream, 8 months: 0.614 Mg/gm
  isothiocyanate concentration in cream, 12 months: 0.571 Mg/gm
  isothiocyanate concentration in cream, Original: 0.123 Mg/gm

## COc1cc(/C=C/C(=O)CC(=O)/C=C/c2ccc(O)c(OC)c2)ccc1O [Curcumin]
[2]
  Oral LD50: > 2 g/kg body weight

## C[S@+]([O-])CCCCN=C=S [L-Sulforaphane]
[1]
  isothiocyanate concentration in cream, 4 months: 0.358 Mg/gm
  isothiocyanate concentration in cream, 8 months: 1.105 Mg/gm
  isothiocyanate concentration in cream, 12 months: 1.841 Mg/gm
  isothiocyanate concentration in cream, Original: 0.606 Mg/gm

## Cc1ccc(-c2cc(C(F)(F)F)nn2-c2ccc(S(N)(=O)=O)cc2)cc1 [Oral Celecoxib, celecoxib]
[3]
  reduction / inhibition of oxazolone-induced ear edema: 37%
  Change in Ear Weight, Mean: 46.7 mg
  Left Ear weight: 27.52 mg and 25.00 mg and 22.00 mg and 27.84 mg and 30.30 mg and 26.29 mg and 23.89 mg and 23.84 mg
  Right Ear weight: 79.55 mg and 68.55 mg (2×) and 72.46 mg and 81.00 mg and 75.32 mg and 72.39 mg and 62.48 mg
  ΔWt., change in mouse ear weight: 52.03 mg and 43.55 mg and 46.55 mg and 44.62 mg and 50.70 mg and 49.03 mg and 48.50 mg and 38.64 mg
  % Inhibition of change in ear weight: 37%

## C[S+]([O-])CCCCN=C=S (centres unmarked) [Sulforaphane]
[4]
  time to decline to a zero level: 30 days

## C[S@@+]([O-])C=CCCN=C=S [Sulforaphene, 4-isothiocyanato-(1R)-(methylsulphinyl)-1-(E)-butene]
[1]
  isothiocyanate concentration in cream, 4 months: 1.729 Mg/gm
  isothiocyanate concentration in cream, 8 months: 0.308 Mg/gm
  isothiocyanate concentration in cream, 12 months: 0.233 Mg/gm
  isothiocyanate concentration in cream, Original: 0.551 Mg/gm

## CC(=O)Oc1ccccc1C(=O)O [aspirin]
[5]
  decrease in distant recurrence and breast cancer death: ~50%

## COc1ccc2c(c1)c(CC(=O)O)c(C)n2C(=O)c1ccc(Cl)cc1 [indomethacin]
[6]; research grade trans-resveratrol, indomethacin 0.5 mg/ear
  inhibition / reduction of edema reported by studies of individual topical components: 45%

## Oc1ccc(/C=C/c2cc(O)cc(O)c2)cc1 [trans-resveratrol, 3,5,4′-trihydroxy-trans-stilbene]
[6]; commercially-purified, at similar concentration to that of the topical formulation
  inhibition of edema: 35%

## betamethasone-21-valerate [Topical Betamethasone]
[3]
  reduction / inhibition of oxazolone-induced ear edema: 69%
  Change in Ear Weight, Mean: 23.7 mg
  Left Ear weight: 22.10 mg and 23.20 mg and 24.56 mg and 20.44 mg and 21.26 mg and 22.60 mg (2×) and 25.74 mg
  Right Ear weight: 48.00 mg and 45.52 mg and 48.66 mg and 47.03 mg and 41.34 mg and 45.70 mg and 49.51 mg and 46.30 mg
  ΔWt., change in mouse ear weight: 25.90 mg and 22.32 mg and 24.10 mg and 26.59 mg and 20.08 mg and 23.10 mg and 26.91 mg and 20.56 mg
  % Inhibition of change in ear weight: 68%
